Measurements taken from US9701716B2, “Water buffalo derived dimeric peptide containing proline for antibiotic therapies” (Centaur, Inc., priority 2014, dated 2017).
Where two headings read alike, the source gives them in different places. No end group written: not given here.

How the values were obtained:
Staphylococcus aureus [1] = assay type: cell-based
Experimental: Additional antimicrobial agents were evaluated for antimicrobial activity, including 23 computationally-derived analogues of SEQ ID NO: 3. These analogues were grouped into two functional series, including those synthesized for improved helicity (Table 2; A-P) and those synthesized for enhanced activity (Table 2; IND, Q-T, and W-X). The antimicrobial activity of the synthetic analogues provided in Table 2 were evaluated using standard techniques such as those described in Sang, et al. 2007 Dev. Comp. Immunol., and herein incorporated by reference. […] The additional antimicrobial agent analogs optimized for helical stability in Example 2 (Table 3) were evaluated for antimicrobial activity. The antimicrobial activity of the synthetic analogues provided in Table 3 were evaluated using standard techniques such as those described in Sang, et al. 2007 Dev. Comp. Immunol., and herein incorporated by reference.

Staphylococcus aureus [2] = assay type: cell-based; remark: listed apart in the source
Experimental: (§1) The antimicrobial agents disclosed are derivatives of SEQ. ID. NO.: 3, having 14 amino acids and a broad spectrum of antimicrobial activity. The antimicrobial agents of the disclosure were synthesized and analyzed to evaluate antimicrobial activity. Initially, the antimicrobial agent of SEQ ID NO.: 3 was evaluated for inhibition of clinical isolates of common mastitis pathogens (Table 1).
(§2) The additional antimicrobial agent analogs optimized for helical stability in Example 2 (Table 3) were evaluated for antimicrobial activity. The antimicrobial activity of the synthetic analogues provided in Table 3 were evaluated using standard techniques such as those described in Sang, et al. 2007 Dev. Comp. Immunol., and herein incorporated by reference.
(§3) The antimicrobial activity of SEQ ID NO. 8 was further evaluated against clinical isolates of mastitis-causing bacteria (Table 5).

Klebsiella pneumoniae = assay type: cell-based
Experimental: as §1, §2, §3

[3] = test system: Streptococcus dysgalactiae; assay type: cell-based
Experimental: as §1, §2, §3

Escherichia coli = assay type: cell-based
Experimental: as §2, §3

Corynebacterium species = assay: MIC against clinical isolates of mastitis pathogens; assay type: cell-based; details: clinical isolate 404-C18, Corynebacterium species, multidrug resistance ++
Experimental: as §1, §2, §3

Staphylococcus aureus [4] = assay: Mastitis mouse model, CFU in mammary glands; assay type: in vivo, Balb/c mice; details: 32 μg per gland intra-mammarily, every 24 hrs for 3 days from 24 hours post-infection; Kruskal-Wallis with Dunn's post-test, 5% level of significance
Experimental: The antimicrobial agent of SEQ ID NO: 8 was evaluated using an in vivo model of bacterial infection to assess the antimicrobial activity of the agent. The following methods and materials were used.
Staphylococcus aureus was isolated from milk from dairy cows with clinical mastitis (Livestock Disease Diagnostic Center, University of Kentucky. Lexington, Ky.). Upon arrival, bacteria were striped on blood agar plates (TSA+5% sheep blood from Remel, Kansas City. Mo.) and cultured at 37° C. for 24 hrs. A fresh single bacterial colony picked from the agar plate was inoculated into 10 ml of Muller Hinton II broth (MHB) and cultured at 37° C. for 4-6 hrs. until reaching an absorbance of 0.8 with a 625 nm spectrophotometer filter. At this absorbance, the MHB has been documented to contain 1×10^5 colony forming units (CFU) in a 50 μl volume.
For the experiment, 56 female Balb/c mice (BW˜[…]) at 7-10 days of lactation were used. Four groups of n=14 mice were used for each experiment as described below. For intramammary inoculation the protocol described by Chandler was followed (J. Med. Microbiol. V3; 273-282: 1970) with minor modifications. […]
All mice were euthanized (using CO2) following the AVMA euthanasia guidelines 24 hours after the last treatment. […] Dilutions (10^−1, 10^−2, and 10^−3) of the homogenates were plated quantitatively to determine the number of CFU per gland. […]

[5] = Staphylococcus aureus, first duplicate
[6] = Staphylococcus aureus, second duplicate

Substance	MIC duplicates (Staphylococcus aureus [1]; [5])	MIC duplicates (Staphylococcus aureus [1]; [6])	also measured
GLARILLRLLFFRG [WB14-F1, GLARILLRLLFFRG]			MIC duplicates (Staphylococcus aureus [1]): 8.0,8.0 μg/ml
GLARILLRLLFRFG (Antimicrobial peptide sequence) [WB14-N1, antimicrobial agent optimized for helical stability]	128,128 μg/ml	128,128 μg/ml	
GLARILLRWLFRFG [WB14-N, GLARILLRWLFRFG]			MIC duplicates (Staphylococcus aureus [1]): 4.0,4.0 μg/ml
GLPWILLRWLFFRG [WB14-A, GLPWILLRWLFFRG]			MIC (Staphylococcus aureus [2]): 25.0 µM; MIC (Klebsiella pneumoniae): 25.0 µM; MIC [3]: 12.5 µM
GLTRILLRLLLRFG (Antimicrobial peptide sequence) [WB14-O4, antimicrobial agent optimized for helical stability]	256,256 μg/ml	256,256 μg/ml	
GLVRILLRLLFRFG (Antimicrobial peptide sequence) [WB14-O1, antimicrobial agent optimized for helical stability]	64 µg/mL	128 µg/mL	
GLVRILLRLLLRFG (Antimicrobial peptide sequence) [WB14-O2, antimicrobial agent optimized for helical stability]	256 µg/mL	128 µg/mL	
GLVRILLRLLLRFS [WB14-O6, GLVRILLRLLLRFS]			MIC duplicates (Staphylococcus aureus [1]): >256, >256 μg/ml
GLVRILLRLLLRYG (Antimicrobial peptide sequence) [WB14-O5, antimicrobial agent optimized for helical stability]	64 µg/mL	128 µg/mL	
H-GLARILLRWLFFRG-OH [WB14-F, GLARILLRWLFFRG]			MIC (Klebsiella pneumoniae): 16.0 µg/mL; MIC [3]: 8.0 µg/mL; antimicrobial activity compared with other peptides (in words) (Staphylococcus aureus [1]; Staphylococcus aureus MIC comparison): most efficacious antimicrobial synthetic peptide; MIC (Escherichia coli): 4.0 µg/mL; MIC (Corynebacterium species): 16.0 µg/mL; colony forming units (CFU) per mammary gland versus control groups (Staphylococcus aureus [4]): a difference between the WB-14F versus the three control groups
SLVRILLRLLLRFG (Antimicrobial peptide sequence) [WB14-O3, antimicrobial agent optimized for helical stability]	128,128 μg/ml	128,128 μg/ml	
